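The compound was tested at five concentrations on cells cultured in 96-well plates, with a 48-hour exposure period. TGI denotes the concentration required for complete inhibition of growth.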
Key:
Test in all cases: NCI anticancer screen, dose series, 48 h
[1] = system: 786-0 renal
[2] = system: ACHN renal
[3] = system: CAKI-1 renal
[4] = system: CCRF-CEM leukemia
[5] = system: COLO 205 colon
[6] = system: DU-145 prostate
[7] = system: EKVX NSCLC
[8] = system: HCT-116 colon
[9] = system: HL-60(TB) leukemia
[10] = system: HOP-62 NSCLC
[11] = system: HOP-92 NSCLC
[12] = system: HS 578T breast
[13] = system: IGROV1 ovarian
[14] = system: K-562 leukemia
[15] = system: KM12 colon
[16] = system: LOX IMVI melanoma
[17] = system: M14 melanoma
[18] = system: MALME-3M melanoma
[19] = system: MCF7 breast
[20] = system: MDA-MB-231 breast
[21] = system: MDA-MB-435
[22] = system: MDA-N
[23] = system: NCI-H23 lung
[24] = system: NCI-H522 lung
[25] = system: OVCAR-3 ovarian
[26] = system: OVCAR-4 ovarian
[27] = system: OVCAR-5 ovarian
[28] = system: PC-3 prostate
[29] = system: SF-268 CNS
[30] = system: SF-295 CNS
[31] = system: SF-539 CNS
[32] = system: SK-MEL-28 melanoma
[33] = system: SK-MEL-5 melanoma
[34] = system: SK-OV-3 ovarian
[35] = system: SNB-19 CNS
[36] = system: SNB-75 CNS
[37] = system: SR leukemia
[38] = system: T-47D breast
[39] = system: TK-10 renal
[40] = system: UACC-62 melanoma
[41] = system: A498 renal
[42] = system: A549 NSCLC
[43] = system: HCT-15 colon
[44] = system: HT29 colon
[45] = system: MOLT-4 leukemia
[46] = system: NCI-H226 lung
[47] = system: NCI/ADR-RES ovarian
[48] = system: OVCAR-8 ovarian
[49] = system: RPMI-8226 leukemia
[50] = system: SK-MEL-2 melanoma
[51] = system: SN12C renal
[52] = system: SW-620 colon
[53] = system: U251 CNS
[54] = system: UO-31 renal
[55] = system: HCC-2998 colon
[56] = system: NCI-H460 lung
[57] = system: RXF 393 renal
[58] = system: UACC-257 melanoma

O=C(C=P(c1ccccc1)(c1ccccc1)c1ccccc1)c1ccccc1-c1ccccc1C(=O)C=P(c1ccccc1)(c1ccccc1)c1ccccc1
TGI [1]: 1.25 µM
TGI [2]: 1.12 µM
TGI [3]: 1.1 µM
TGI [4]: 0.843 µM
TGI [5]: 0.0222 µM
TGI [6]: 1.28 µM
TGI [7]: 0.91 µM
TGI [8]: 0.259 µM
TGI [9]: < 0.0195 µM
TGI [10]: 0.507 µM
TGI [11]: 0.0544 µM
TGI [12]: 0.317 µM
TGI [13]: 1.36 µM
TGI [14]: 0.0905 µM
TGI [15]: 0.02 µM
TGI [16]: 0.0716 µM
TGI [17]: 1.42 µM
TGI [18]: < 0.0208 µM
TGI [19]: 0.0395 µM
TGI [20]: 0.158 µM
TGI [21]: 1.11 µM
TGI [22]: 1.1 µM
TGI [23]: 0.0899 µM
TGI [24]: 1.78 µM
TGI [25]: < 0.012 µM
TGI [26]: 1.63 µM
TGI [27]: 0.585 µM
TGI [28]: 1.23 µM
TGI [29]: 1.61 µM
TGI [30]: 0.0496 µM
TGI [31]: 0.384 µM
TGI [32]: 2.03 µM
TGI [33]: 0.0263 µM
TGI [34]: 0.366 µM
TGI [35]: 1.58 µM
TGI [36]: 0.115 µM
TGI [37]: 0.0667 µM
TGI [38]: 2.08 µM
TGI [39]: 0.182 µM
TGI [40]: 1.33 µM

CCC(C)C(NC(=O)c1cccc2c(=O)c3ccccc3[nH]c12)C(=O)O (stereo not given)
TGI [1]: > 100 µM
TGI [41]: > 100 µM
TGI [42]: > 100 µM
TGI [2]: > 100 µM
TGI [4]: > 100 µM
TGI [5]: > 100 µM
TGI [6]: > 100 µM
TGI [7]: > 100 µM
TGI [8]: > 100 µM
TGI [43]: > 100 µM
TGI [10]: > 100 µM
TGI [11]: > 100 µM
TGI [12]: > 100 µM
TGI [44]: > 100 µM
TGI [13]: > 100 µM
TGI [14]: > 100 µM
TGI [15]: > 100 µM
TGI [16]: > 100 µM
TGI [17]: > 100 µM
TGI [18]: > 100 µM
TGI [19]: > 100 µM
TGI [20]: > 100 µM
TGI [21]: > 100 µM
TGI [22]: > 100 µM
TGI [45]: > 100 µM
TGI [46]: > 100 µM
TGI [23]: > 100 µM
TGI [24]: > 100 µM
TGI [47]: > 100 µM
TGI [25]: > 100 µM
TGI [26]: > 100 µM
TGI [27]: > 100 µM
TGI [48]: > 100 µM
TGI [28]: > 100 µM
TGI [49]: > 100 µM
TGI [29]: > 100 µM
TGI [30]: > 100 µM
TGI [50]: > 100 µM
TGI [32]: > 100 µM
TGI [33]: > 100 µM
TGI [34]: > 100 µM
TGI [51]: > 100 µM
TGI [35]: > 100 µM
TGI [36]: > 100 µM
TGI [37]: > 100 µM
TGI [52]: > 100 µM
TGI [39]: > 100 µM
TGI [53]: > 100 µM
TGI [40]: > 100 µM
TGI [54]: > 100 µM

CC(=O)CC(O)(C(F)(F)Cl)C(F)(Cl)Cl (stereo not given)
TGI [1]: > 10 µM
TGI [41]: > 10 µM
TGI [42]: > 10 µM
TGI [2]: > 10 µM
TGI [3]: > 10 µM
TGI [4]: > 10 µM
TGI [5]: > 10 µM
TGI [6]: > 10 µM
TGI [7]: > 10 µM
TGI [55]: > 10 µM
TGI [8]: > 10 µM
TGI [43]: > 10 µM
TGI [9]: > 10 µM
TGI [10]: > 10 µM
TGI [11]: > 10 µM
TGI [12]: > 10 µM
TGI [44]: > 10 µM
TGI [13]: > 10 µM
TGI [14]: > 10 µM
TGI [15]: > 10 µM
TGI [16]: > 10 µM
TGI [17]: > 10 µM
TGI [18]: > 10 µM
TGI [19]: > 10 µM
TGI [20]: > 10 µM
TGI [21]: > 10 µM
TGI [22]: > 10 µM
TGI [46]: > 10 µM
TGI [23]: > 10 µM
TGI [56]: > 10 µM
TGI [24]: > 10 µM
TGI [47]: > 10 µM
TGI [25]: > 10 µM
TGI [26]: > 10 µM
TGI [48]: > 10 µM
TGI [28]: > 10 µM
TGI [57]: > 10 µM
TGI [29]: > 10 µM
TGI [30]: > 10 µM
TGI [31]: > 10 µM
TGI [50]: > 10 µM
TGI [32]: > 10 µM
TGI [33]: > 10 µM
TGI [34]: > 10 µM
TGI [51]: > 10 µM
TGI [35]: > 10 µM
TGI [36]: > 10 µM
TGI [52]: > 10 µM
TGI [38]: > 10 µM
TGI [39]: > 10 µM
TGI [53]: > 10 µM
TGI [58]: > 10 µM
TGI [40]: > 10 µM
TGI [54]: > 10 µM

CCOc1c2c(cc3c1C(=O)c1c(OC)cccc1C3=O)C=C(OC)CC2
TGI [1]: > 25 µM
TGI [41]: > 25 µM
TGI [42]: > 25 µM
TGI [2]: > 25 µM
TGI [3]: > 25 µM
TGI [4]: > 25 µM
TGI [5]: > 25 µM
TGI [6]: > 25 µM
TGI [7]: > 25 µM
TGI [8]: > 25 µM
TGI [43]: > 25 µM
TGI [9]: 13.2 µM
TGI [10]: > 25 µM
TGI [11]: > 25 µM
TGI [12]: > 25 µM
TGI [44]: > 25 µM
TGI [13]: > 25 µM
TGI [14]: > 25 µM
TGI [15]: > 25 µM
TGI [16]: > 25 µM
TGI [17]: > 25 µM
TGI [18]: > 25 µM
TGI [19]: > 25 µM
TGI [20]: > 25 µM
TGI [21]: > 25 µM
TGI [22]: 19.9 µM
TGI [45]: > 25 µM
TGI [46]: > 25 µM
TGI [23]: > 25 µM
TGI [56]: > 25 µM
TGI [24]: > 25 µM
TGI [47]: > 25 µM
TGI [25]: > 25 µM
TGI [26]: > 25 µM
TGI [27]: > 25 µM
TGI [48]: > 25 µM
TGI [28]: > 25 µM
TGI [49]: > 25 µM
TGI [57]: > 25 µM
TGI [29]: > 25 µM
TGI [30]: > 25 µM
TGI [31]: > 25 µM
TGI [50]: > 25 µM
TGI [32]: > 25 µM
TGI [33]: > 25 µM
TGI [34]: > 25 µM
TGI [51]: > 25 µM
TGI [35]: > 25 µM
TGI [36]: > 25 µM
TGI [37]: 22.9 µM
TGI [52]: > 25 µM
TGI [39]: > 25 µM
TGI [53]: > 25 µM
TGI [58]: > 25 µM
TGI [40]: > 25 µM
TGI [54]: > 25 µM

Reference: PubChem BioAssay (NCI)
